From patent US8329230B2, “Natural hair care composition, methods for obtaining the same and use thereof” (priority 2004, dated 2012)
“Also recorded” adds a separate entry of the source.

Legend:
[1] = system: chemotherapy induced alopecia; assay: Chemotherapeutic agent (cyclophosphamide) induced alopecia model, topical extracts; assay type: in vivo, rat pups of Sprague-Dawley strain
Procedure: Eight-day old rat pups of Sprague-Dawley strain of either sex, bred in Experimental Animal Facility of R&D Center, The Himalaya Drug Company, were used for the experiment. The animals were maintained at 22±3° C., 50-60% of humidity, 12 hours light and dark cycle.
Screening of Extracts in Chemotherapeutic Agent Induced Alopecia Model:
Three Groups of 8 rat pups are used. Group I served normal control and received saline at a dose of 10 ml/kg i.p. Group II & Group III animals received Cyclophosphamide (CP) at a dose of 50 mg/kg i.p. as a single dose. Test extracts PCPB-1 to PCPB-10, PCPB-1P to PCPB-10P and PCPB-1S to PCPB-10S were applied topically to Group III animals everyday from day one after Cyclophosphamide administration till the end of the study. On the 12th day of post Cyclophosphamide injection, the animals were graded for alopecia as given below.
2+—Moderately severe alopecia with more than 50% hair loss
3+—Severe and total alopecia.

[2] = system: Cladosporium cladosporioides (Fres.) de Vries; conditions: cited from earlier work
male pattern baldness = conditions: Phytother. Res. 15, 331-36, 2001; cited from earlier work
[3] = system: murine hair epithelial cells; conditions: Phytother. Res. 15, 331-36, 2001; cited from earlier work
heart rate = conditions: oral; cited from earlier work

## O=P1(N(CCCl)CCCl)NCCCO1 (stereo not drawn) [CP, Cyclophosphamide]
[1]; figure legends FIGS. 2, 3
  hair growth, stereosome photograph: scanty hairs
[1]; figure legends FIGS. 5, 6
  alopecia, appearance of rat pups: high degree of alopecia
[1]; figure legends FIGS. 8-10
  hair follicles, photomicrograph of skin section: degenerating hair follicles with decrease in their numbers; also recorded: degenerating hair follicles with epidermal down growth
[1]; mean ± SEM of 8 rat pups, graded 0 to 3+ on 12th day post CP
  alopecia grade, Mean SEM: 2.88 ± 0.13

## COc1ccc2c(c1)O[C@H]1c3ccc(O)cc3OC[C@@H]21 [(−)-medicarpin, (−)-3-hydroxy-9-methoxy ptero carpan]
[2]
  anti-fungal activity: active

## COc1ccc2c(c1)OC1c3ccc(OC(C)=O)cc3OCC21 (single isomer, unassigned; (-)) [(−)-medicarpin acetate]
[2]
  anti-fungal activity: active

## Oc1cc(O)c2c(c1)O[C@H](c1ccc(O)c(O)c1)[C@H](O)[C@H]2c1c(O)cc(O)c2c1O[C@H](c1ccc(O)c(O)c1)[C@H](O)C2 [Procyanidin B-2]
Male pattern baldness
  potential as cure for male pattern baldness: showed potential as promising cure
[3]
  growth promoting effect on hair epithelial cells: acts as growth promoting factor

## Nc1cc(N2CCCCC2)nc(N)[n+]1[O-] [Minoxidil]
Heart rate
  effect on heart rate: reported to affect heart rate in some patients
